# Test results as given in patent US12528814B2, “Bifunctional degraders of interleukin-1 receptor-associated kinases and therapeutic use thereof” (NURIX THERAPEUTICS, INC., priority 2020, dated 2026).
# Like-named read-outs stand apart in the source and are kept apart here.
# How the values were obtained:
# [1] = target: T1, IRAK4 (Homo sapiens (Human), UniProt Q9NWZ3); test: IRAK4 Biochemical HTRF Kinase Assay; details: read-out: IRAK4 HTRF biochemical: IC50
# Description: IRAK4 Biochemical HTRF Kinase Assay
# The binding capacities of certain bifunctional compounds of Formula (I) were determined using the CisBio HTRF KinEASE STK S1 Kit (#62ST1PEB, contains 5× Kinase buffer, 1× Detection Buffer, anti-phospho-serine/threonine-cryptate, Streptavidin-XL665, and STK-S1), which measures the phosphorylation of a biotinylated peptide substrate by IRAK4, according to the manufacturer's protocol. […] 2 μl of a reaction solution containing 5 μM STK-S1, 10 mM ATP, and 10 mM MgCl2 were added to each well to a final volume of 10 μl. Assay controls include wells containing kinase with no compound (DMSO only) and wells containing no kinase and no compound (DMSO only). The reactions were allowed to proceed at ambient temperature for 90 minutes. […] The plates were incubated for 60 minutes at ambient temperature and then read on an Envision Multilabel Reader (PerkinElmer). […] For IC50 determination, the compounds were tested at sixteen concentrations in duplicate and curve-fitting was performed by non-linear regression analysis using GraphPad Priam.
# Target sequence in this assay (Q9NWZ3 whole entry, species assumed): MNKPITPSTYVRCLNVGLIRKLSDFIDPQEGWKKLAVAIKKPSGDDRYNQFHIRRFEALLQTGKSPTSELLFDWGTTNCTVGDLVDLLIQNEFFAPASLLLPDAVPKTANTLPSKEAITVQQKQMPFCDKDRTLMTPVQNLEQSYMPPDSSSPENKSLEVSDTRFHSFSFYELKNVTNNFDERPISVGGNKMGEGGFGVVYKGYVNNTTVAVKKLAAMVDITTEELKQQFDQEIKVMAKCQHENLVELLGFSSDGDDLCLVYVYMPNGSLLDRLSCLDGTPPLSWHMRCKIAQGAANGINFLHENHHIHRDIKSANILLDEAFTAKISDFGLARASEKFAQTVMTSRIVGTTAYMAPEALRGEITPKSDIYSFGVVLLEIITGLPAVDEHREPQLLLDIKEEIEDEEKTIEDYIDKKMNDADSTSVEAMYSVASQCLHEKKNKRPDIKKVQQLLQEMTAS
# [2] = target: T1, IRAK4; test: IRAK4 Degradation HiBiT Assay; details: HiBiT-tagged Jurkat cells, 4 hrs; for Dmax: Jurkat; for DC50: read-out: Cellular IRAK4 HiBiT: DC50
# Target sequence in this assay (Q9NWZ3 whole entry): as the sequence (Q9NWZ3 whole entry, species assumed) above
# [3] = read-out: Cellular IRAK4 HiBiT: Dmax, Table 5, multiple runs
"IC50 ([1]; Table 5, multiple runs) [nM]","Dmax [2, 3] [%]","DC50 ([2]; Table 5, multiple runs) [nM]",IC50 ([1]; Table 4) [nM],"Dmax ([2]; read-out: Cellular IRAK4 HiBiT: Dmax, Table 4) [%]",DC50 ([2]; Table 4) [nM],Structure (SMILES)
2,45,43.8,–,–,–,"CNc1cc(-c2ccc3cc(C#N)cnn23)ncc1-c1nnc(C23CCC(NC(=O)CCCCCNc4cccc5c4C(=O)N(C4CCC(=O)NC4=O)C5=O)(CC2)CC3)s1 (centres unmarked) [Example 106, N-(4-(5-(6-(3-cyanopyrrolo[1,2-b]pyridazin-7-yl)-4-(methylamino)pyridin-3-yl)-1,3,4-thiadiazol-2-yl)bicyclo[2.2.2]octan-1-yl)-6-((2-(2,6-dioxopiperidin-3-yl)-1,3-dioxoisoindolin-4-yl)amino)hexanamide]"
0.4,111,4.41,–,–,–,"CNc1cc(-c2ccc3cc(C#N)cnn23)ncc1-c1nnc(N2CCN(C3CCN(C(=O)Cc4ccc5c(c4)CN(C4CCC(=O)NC4=O)C5=O)CC3)CC2)s1 (centres unmarked) [Example 100, 7-(5-(5-(4-(1-(2-(2-(2,6-dioxopiperidin-3-yl)-1-oxoisoindolin-5-yl)acetyl)piperidin-4-yl)piperazin-1-yl)-1,3,4-thiadiazol-2-yl)-4-(methylamino)pyridin-2-yl)pyrrolo[1,2-b]pyridazine-3-carbonitrile]"
0.3,62,192,–,–,–,"CNc1cc(-c2ccc3cc(C#N)cnn23)ncc1-c1nnc([C@H]2CC[C@H](N(C)CC3CCN(c4ccc(C(=O)N(C)C5CCC(=O)NC5=O)cc4)CC3)CC2)s1 (some centres unmarked) [Example 189, 4-(4-((((1r,4r)-4-(5-(6-(3-cyanopyrrolo[1,2-b]pyridazin-7-yl)-4-(methylamino)pyridin-3-yl)-1,3,4-thiadiazol-2-yl)cyclohexyl)(methyl)amino)methyl)piperidin-1-yl)-N-(2,6-dioxopiperidin-3-yl)-N-methylbenzamide]"
0.5,107,20.1,–,–,–,"CNc1cc(-c2ccc3cc(C#N)cnn23)ncc1-c1nnc([C@H]2CC[C@H](N(C)CC3CCN(c4ccc(C(=O)NC5CCC(=O)NC5=O)nc4)CC3)CC2)s1 (some centres unmarked) [Example 167, 5-(4-((((1r,4r)-4-(5-(6-(3-cyanopyrrolo[1,2-b]pyridazin-7-yl)-4-(methylamino)pyridin-3-yl)-1,3,4-thiadiazol-2-yl)cyclohexyl)(methyl)amino)methyl)piperidin-1-yl)-N-(2,6-dioxopiperidin-3-yl)picolinamide]"
1.5,111,58.2,1.51,103,74.5,"CNc1cc(-c2ccc3cc(C#N)cnn23)ncc1-c1nnc([C@H]2CC[C@H](NC(=O)CCCCCC(=O)N[C@H](C(=O)N3C[C@H](O)C[C@H]3C(=O)N[C@@H](C)c3ccc(-c4scnc4C)cc3)C(C)(C)C)CC2)s1 [Example 62, N1-((1r,4S)-4-(5-(6-(3-cyanopyrrolo[1,2-b]pyridazin-7-yl)-4-(methylamino)pyridin-3-yl)-1,3,4-thiadiazol-2-yl)cyclohexyl)-N7—((S)-1-((2S,4R)-4-hydroxy-2-(((S)-1-(4-(4-methylthiazol-5-yl)phenyl)ethyl)carbamoyl)pyrrolidin-1-yl)-3,3-dimethyl-1-oxobutan-2-yl)heptanediamide]"
0.6,20,2.63,–,–,–,"CNc1cc(-c2ccc3cc(C#N)cnn23)ncc1-c1nnc([C@H]2CC[C@H](N(C)C(=O)Cc3ccc4c(c3)CN(C3CCC(=O)NC3=O)C4=O)CC2)s1 (some centres unmarked) [Example 168, N-((1r,4r)-4-(5-(6-(3-cyanopyrrolo[1,2-b]pyridazin-7-yl)-4-(methylamino)pyridin-3-yl)-1,3,4-thiadiazol-2-yl)cyclohexyl)-2-(2-(2,6-dioxopiperidin-3-yl)-1-oxoisoindolin-5-yl)-N-methylacetamide]"
1.2,115,356,–,–,–,CNc1cc(-c2ccc3cc(C#N)cnn23)ncc1-c1nnc(C23CCC(NC(=O)CCOCCC(=O)N[C@H](C(=O)N4C[C@H](O)C[C@H]4C(=O)NCc4ccc(-c5scnc5C)cc4)C(C)(C)C)(CC2)CC3)s1 [Example 129]
1.2,20,27.1,–,–,–,"CNc1cc(-c2ccc3cc(C#N)cnn23)ncc1-c1nnc([C@H]2CC[C@@H](NC(=O)CCOCCOCCOCCNc3cccc4c3C(=O)N(C3CCC(=O)NC3=O)C4=O)CC2)s1 (some centres unmarked) [Example 117, N-((1s,4s)-4-(5-(6-(3-cyanopyrrolo[1,2-b]pyridazin-7-yl)-4-(methylamino)pyridin-3-yl)-1,3,4-thiadiazol-2-yl)cyclohexyl)-3-(2-(2-(2-((2-(2,6-dioxopiperidin-3-yl)-1,3-dioxoisoindolin-4-yl)amino)ethoxy)ethoxy)ethoxy)propanamide]"
1.4,56,24.6,–,–,–,"CNc1cc(-c2ccc3cc(C#N)cnn23)ncc1-c1nnc(N2CCN(CC3CCN(c4ccc(C(=O)NC5CCC(=O)NC5=O)nc4)CC3)CC2)s1 (centres unmarked) [Example 161, 5-(4-((4-(5-(6-(3-cyanopyrrolo[1,2-b]pyridazin-7-yl)-4-(methylamino)pyridin-3-yl)-1,3,4-thiadiazol-2-yl)piperazin-1-yl)methyl)piperidin-1-yl)-N-(2,6-dioxopiperidin-3-yl)picolinamide]"
1,99,73.3,–,–,–,"CNc1cc(-c2ccc3cc(C#N)cnn23)ncc1-c1nnc(C23CCC(NC(=O)C4CN(C5CCN(c6ccc7c(c6)C(=O)N(C6CCC(=O)NC6=O)C7=O)CC5)C4)(CC2)CC3)s1 (centres unmarked) [Example 103, N-(4-(5-(6-(3-cyanopyrrolo[1,2-b]pyridazin-7-yl)-4-(methylamino)pyridin-3-yl)-1,3,4-thiadiazol-2-yl)bicyclo[2.2.2]octan-1-yl)-1-(1-(2-(2,6-dioxopiperidin-3-yl)-1,3-dioxoisoindolin-5-yl)piperidin-4-yl)azetidine-3-carboxamide]"
1,105,7.75,–,–,–,"CNc1cc(-c2ccc3cc(C#N)cnn23)ncc1-c1nnc([C@H]2C[C@H](NC(=O)CN3CCN(c4ccc5c(c4)C(=O)N(C4CCC(=O)NC4=O)C5=O)CC3)C2)s1 (some centres unmarked) [Example 190, N-((1r,3r)-3-(5-(6-(3-cyanopyrrolo[1,2-b]pyridazin-7-yl)-4-(methylamino)pyridin-3-yl)-1,3,4-thiadiazol-2-yl)cyclobutyl)-2-(4-(2-(2,6-dioxopiperidin-3-yl)-1,3-dioxoisoindolin-5-yl)piperazin-1-yl)acetamide]"
–,35,21.9,–,–,–,"CNc1cc(-c2ccc3cc(C#N)cnn23)ncc1-c1nnc(C23CCC(NC(=O)C4CCN(c5cccc6c5C(=O)N(C5CCC(=O)NC5=O)C6=O)CC4)(CC2)CC3)s1 (centres unmarked) [Example 136, N-(4-(5-(6-(3-cyanopyrrolo[1,2-b]pyridazin-7-yl)-4-(methylamino)pyridin-3-yl)-1,3,4-thiadiazol-2-yl)bicyclo[2.2.2]octan-1-yl)-1-(2-(2,6-dioxopiperidin-3-yl)-1,3-dioxoisoindolin-4-yl)piperidine-4-carboxamide]"
